Drawing on PubChem BioAssay (NCI), this text covers TGI and GI50 for 16 compounds.

“And” between values parts separate entries of the source, which are not always exact repeats. Equal values may be shown once.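 Five concentrations, 48 hours, 96-well plates. Abbreviation: GI50, concentration required for 50% inhibition of growth. TGI denotes the concentration required for complete inhibition of growth.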

Among the test systems are SK-OV-3 ovarian; HOP-92 NSCLC; A549 NSCLC; RXF 393 renal; HS 578T breast; NCI-H522 lung.
Common to all, as to assay: growth of human tumour cells (NCI), 48 h

For the compound `ClCCCCCc1c2nc(c(CCCCCCl)c3ccc([nH]3)c(CCCCCCl)c3ccc([nH]3)c(CCCCCCl)c3nc1C=C3)C=C2`, the TGI with SK-OV-3 ovarian, in the experiment on HOP-92 NSCLC, in the experiment with A549 NSCLC, in the experiment on RXF 393 renal, in the experiment with HS 578T breast and in the experiment with NCI-H522 lung was above 100 µM each time.
On to `NS(=O)(=O)c1ccc(/C=C/c2ccc(O)cc2)cc1`, for which the TGI was 59.5 µM in the experiment on SK-OV-3 ovarian; 39.5 µM in the experiment with HOP-92 NSCLC; 55.4 µM in the experiment with A549 NSCLC; above 100 µM with RXF 393 renal; above 100 µM with HS 578T breast; 50.2 µM in the experiment on NCI-H522 lung. The GI50 is 13.9 µM in the experiment with A549 NSCLC, 28.9 µM in the experiment with HS 578T breast and 13.8 µM with NCI-H522 lung.
On to `COC(=O)/C=C1/OC(c2ccc(OC)cc2)=C(Cl)C1=O`, for which the TGI came to 25.2 µM with SK-OV-3 ovarian; 57.5 µM in the experiment with HOP-92 NSCLC; 56.4 µM with A549 NSCLC; 31.7 µM in the experiment with RXF 393 renal; 84 µM in the experiment with HS 578T breast; 28.6 µM with NCI-H522 lung.
Regarding `CC(=O)N(C(C)=O)c1cc2c3c(c1)CCCN3CCC2`, the TGI in the experiment on SK-OV-3 ovarian, with HOP-92 NSCLC, in the experiment on A549 NSCLC, with RXF 393 renal, in the experiment with HS 578T breast and with NCI-H522 lung was above 10 µM each time.
In the case of `CNc1nc(C(N)=O)c(N)s1`, the TGI with SK-OV-3 ovarian, in the experiment on HOP-92 NSCLC, in the experiment with A549 NSCLC, with RXF 393 renal, with HS 578T breast and in the experiment on NCI-H522 lung was above 100 µM each time.
Regarding `c1ccc(CSC2(SCc3ccccc3)CCCCC2)cc1`, the TGI in the experiment with SK-OV-3 ovarian, in the experiment with HOP-92 NSCLC, with A549 NSCLC, in the experiment on RXF 393 renal, in the experiment with HS 578T breast and in the experiment with NCI-H522 lung was above 10 µM each time.
With `COc1cccc(C2c3cc4c(cc3OC(Nc3ccccc3)C2C)OCO4)c1OC` (configuration not stated), the TGI in the experiment with SK-OV-3 ovarian was above 100 µM; in the experiment on HOP-92 NSCLC, 60.1 µM; with A549 NSCLC, above 100 µM; in the experiment on RXF 393 renal it was above 100 µM; in the experiment with HS 578T breast, 61.4 µM; in the experiment with NCI-H522 lung it was 95 µM.
As for `COc1ccc2nc3cccc([N+](=O)[O-])c3c(NCCCO)c2c1`, the GI50 was 0.0375 µM and 0.0452 µM in the experiment with SK-OV-3 ovarian; 0.0154 µM with HOP-92 NSCLC; 0.00445 µM and 0.033 µM with HS 578T breast; 0.00165 µM with NCI-H522 lung. The TGI with SK-OV-3 ovarian was 0.184 µM and 0.563 µM; in the experiment with HOP-92 NSCLC, 0.0565 µM; with A549 NSCLC it was 0.0223 µM and 0.102 µM; in the experiment with RXF 393 renal it was 0.00255 µM; in the experiment with NCI-H522 lung it was 0.00662 µM.
For `CC1=C(C)SC(=C2Sc3nc(O)[nH]c(=O)c3S2)S1`, the TGI in the experiment on SK-OV-3 ovarian, with HOP-92 NSCLC, in the experiment with A549 NSCLC, in the experiment with RXF 393 renal, in the experiment with HS 578T breast and in the experiment with NCI-H522 lung was above 100 µM each time.
Turning to `COc1ccc(/C=C2\C[C@H]3[C@@H]4CCC5=CC(=O)CC[C@]5(C)[C@H]4CC[C@]3(C)C2=O)cc1OC`, the TGI with SK-OV-3 ovarian is above 100 µM; in the experiment on HOP-92 NSCLC, above 100 µM; in the experiment on A549 NSCLC, above 100 µM; in the experiment with RXF 393 renal it was above 100 µM; with HS 578T breast, above 100 µM; in the experiment with NCI-H522 lung it was 9.87 µM.
As for `O=C1CC(=O)NC(=NNS(=O)(=O)c2ccc(Cl)cc2)N1`, the TGI in the experiment on SK-OV-3 ovarian, in the experiment with HOP-92 NSCLC, in the experiment on A549 NSCLC, in the experiment on RXF 393 renal, with HS 578T breast and in the experiment on NCI-H522 lung was above 100 µM throughout.
On to `CCOC(=O)/C=C(/C)Nc1nc2c(c(C(=O)OC)c1C#N)CCCC2`, for which the TGI in the experiment on SK-OV-3 ovarian, in the experiment on HOP-92 NSCLC, in the experiment with A549 NSCLC, in the experiment on RXF 393 renal, in the experiment with HS 578T breast and in the experiment on NCI-H522 lung was above 100 µM in each case.
Turning to `CC1C(C#N)(C#N)C(C#N)=C(N)C1(Cl)[N+](=O)[O-]` (configuration not stated), the TGI was 32.6 µM with SK-OV-3 ovarian; 5.91 µM with HOP-92 NSCLC; 54.6 µM with A549 NSCLC; 17.4 µM in the experiment with RXF 393 renal; 46.1 µM with HS 578T breast; 6.1 µM in the experiment with NCI-H522 lung.
With `N#Cc1c(O)c(/C=N/c2ncccn2)c(=O)n2c1[nH]c1ccccc12`, the TGI with SK-OV-3 ovarian, in the experiment on HOP-92 NSCLC, in the experiment on A549 NSCLC, in the experiment with RXF 393 renal, in the experiment on HS 578T breast and in the experiment on NCI-H522 lung was above 100 µM in each case.
In the case of `O=C(CC(Cl)=C(Cl)Cl)c1ccccc1`, the TGI is above 100 µM with SK-OV-3 ovarian; above 100 µM with HOP-92 NSCLC; above 100 µM in the experiment with A549 NSCLC; 63.8 µM in the experiment on RXF 393 renal; above 100 µM with HS 578T breast; 69.6 µM with NCI-H522 lung.
Take `CN1CC2CN(Cc3ccccc3)CCN2c2cccnc21` (configuration not stated): the TGI in the experiment with SK-OV-3 ovarian, in the experiment with HOP-92 NSCLC, with A549 NSCLC, in the experiment on RXF 393 renal, in the experiment with HS 578T breast and with NCI-H522 lung was above 100 µM each time.
